Experiments:
Conditions in all cases: 72 h
[1] = tested on: Caco-2; assay: relative viability EC50 (midpoint between 100% and the lowest measured viability); higher = less toxic
[2] = tested on: HepG2; assay: as above
[3] = tested on: U2OS; assay: as above
[4] = tested on: Calu-3; assay: as above
[5] = tested on: Vero E6; assay: as above
[6] = tested on: Caco-2; assay: drug sensitivity score (DSS) for viability; higher = more toxic; extreme values may be limits of the assay
[7] = tested on: HepG2; assay: as above
[8] = tested on: U2OS; assay: as above
[9] = tested on: Calu-3; assay: as above
[10] = tested on: Vero E6; assay: as above
[11] = tested on: Caco-2; assay: cell viability relative to DMSO; higher = less toxic
[12] = tested on: HepG2; assay: as above
[13] = tested on: U2OS; assay: as above
[14] = tested on: Calu-3; assay: as above
[15] = tested on: Vero E6; assay: as above

| Compound | relative viability EC50 [1] [µM] | relative viability EC50 [2] [µM] | relative viability EC50 [3] [µM] | relative viability EC50 [4] [µM] | relative viability EC50 [5] [µM] | drug sensitivity score [6] | drug sensitivity score [7] | drug sensitivity score [8] | drug sensitivity score [9] | drug sensitivity score [10] | cell viability ([11]; 1 nM) [%] | cell viability ([11]; 10 nM) [%] | cell viability ([11]; 100 nM) [%] | cell viability ([11]; 1000 nM) [%] | cell viability ([11]; 10000 nM) [%] | cell viability ([12]; 1 nM) [%] | cell viability ([12]; 10 nM) [%] | cell viability ([12]; 100 nM) [%] | cell viability ([12]; 1000 nM) [%] | cell viability ([12]; 10000 nM) [%] | cell viability ([13]; 1 nM) [%] | cell viability ([13]; 10 nM) [%] | cell viability ([13]; 100 nM) [%] | cell viability ([13]; 1000 nM) [%] | cell viability ([13]; 10000 nM) [%] | cell viability ([14]; 1 nM) [%] | cell viability ([14]; 10 nM) [%] | cell viability ([14]; 100 nM) [%] | cell viability ([14]; 1000 nM) [%] | cell viability ([14]; 10000 nM) [%] | cell viability ([15]; 1 nM) [%] | cell viability ([15]; 10 nM) [%] | cell viability ([15]; 100 nM) [%] | cell viability ([15]; 1000 nM) [%] | cell viability ([15]; 10000 nM) [%] |
| --- | --- | --- | --- | --- | --- | --- | --- | --- | --- | --- | --- | --- | --- | --- | --- | --- | --- | --- | --- | --- | --- | --- | --- | --- | --- | --- | --- | --- | --- | --- | --- | --- | --- | --- | --- |
| CCN1C(=O)CNc2ncc(-c3ccc(-c4nc[nH]n4)nc3C)nc21 [CC-115] | 0.411 | 0.894 | 1.11 | 0.4 | 1.04 | 12.7 | 9.3 | 10.5 | 12.8 | 8.7 | 94.7 | 96.4 | 89.2 | 39.8 | 20.5 | 108 | 102 | 105 | 57.2 | 25.1 | 100 | 102 | 99.6 | 59.4 | 6.6 | 106 | 92 | 91.9 | 37.3 | 21.6 | 108 | 103 | 103 | 64.4 | 24.8 |
| CCOc1ccccc1OCC1CNCCO1 (stereo not given) [viloxazine] | > 10 | > 10 | > 10 | > 10 | > 10 | 0 | 0 | 0 | 0 | 0 | 111 | 99.5 | 113 | 118 | 95.6 | 116 | 91.7 | 111 | 94.7 | 96.6 | 94.8 | 98.5 | 102 | 104 | 105 | 86.6 | 98.2 | 98.6 | 100 | 111 | 96.4 | 89.4 | 94.1 | 92.2 | 102 |
| O=S(=O)(c1ccccc1F)N1CCOc2c(N3CCNCC3)cccc21 [R-1485] | > 10 | > 10 | > 10 | > 10 | > 10 | 0 | 0 | 0 | 0 | 0 | 89.3 | 98.6 | 93 | 96.3 | 95.6 | 102 | 101 | 101 | 93.6 | 96.7 | 96.2 | 96.5 | 93.6 | 97.6 | 92.8 | 96.5 | 100 | 98.8 | 100 | 90.8 | 105 | 105 | 99.2 | 97.3 | 108 |
| O=C(O)Cc1cccc2c(=O)cc(-c3ccccc3)oc12 [mitoflaxone] | > 10 | > 10 | > 10 | > 10 | > 10 | 0 | 0 | 0 | 0 | 0 | 86 | 101 | 89.6 | 104 | 112 | 98.3 | 92.3 | 93.2 | 103 | 114 | 99.5 | 98 | 97.3 | 102 | 104 | 96 | 102 | 97 | 95.8 | 112 | 96.9 | 99.8 | 95.7 | 94.9 | 107 |
| CCN(CC)CCN[C@@H](C(=O)OCCC(C)C)c1ccccc1 [camylofine-chlorhydrate] | > 10 | > 10 | > 10 | > 10 | > 10 | 1 | 0 | 0 | 0 | 0 | 84.4 | 82 | 85.5 | 100 | 85.6 | 106 | 105 | 98.6 | 97.3 | 108 | 90.7 | 99.7 | 94.8 | 101 | 108 | 96.3 | 107 | 102 | 97.5 | 99 | 94.9 | 93 | 95.7 | 91.1 | 103 |
| COc1cc(Br)c(Nc2nc(-c3c(C)nc4ncccn34)cs2)c(Br)c1 [PTC-209] | 1.5 | 1.3 | 0.986 | 1.44 | 0.633 | 8 | 8.7 | 10.4 | 5.7 | 11.7 | 95.4 | 91.5 | 96.1 | 77.8 | 16.7 | 97.1 | 97.5 | 100 | 71.3 | 16.1 | 97.7 | 101 | 98.8 | 55.3 | 11.8 | 109 | 102 | 98.9 | 83.2 | 41.2 | 99.3 | 99.3 | 95.7 | 43.1 | 15.7 |
| O=C(O)c1cccc(-c2noc(-c3ccccc3F)n2)c1 [ataluren] | > 10 | > 10 | > 10 | > 10 | > 10 | 0 | 0 | 0 | 0 | 0 | 97 | 101 | 98.6 | 111 | 94.3 | 101 | 107 | 105 | 97.2 | 90.9 | 96.6 | 99.4 | 95.7 | 101 | 93.5 | 98.5 | 89.7 | 104 | 94.2 | 99.6 | 103 | 102 | 106 | 106 | 95.7 |
